Where two headings read alike, the source gives them in different places.
Columns and labels:
[1] = tested on: TNFα release from human peripheral blood mononuclear cells (PBMCs); experiment: LPS-induced TNFα release from human PBMCs/monocytes (sandwich ELISA); type: cell-based; conditions: LPS 1 μg/ml; for IC50: Homo sapiens, PBMC, read-out: IC50 of inhibition of TNFα release
Protocol: The influence of R,R-glycopyrrolate in combination with glucocorticoids on TNFα release was investigated by using human peripheral blood mononuclear cells (PBMCs). The study was approved by our institutional Ethics Committee according to the International Declarations of Helsinki and Tokyo. PBMCs were isolated from heparinized blood samples of healthy donors by density gradient centrifugation. An equal volume of Hanks buffer (Life Technologies, Heidelberg, Germany) is added to heparinized whole blood samples. 15 ml Histopaque-1077 (Sigma, Deisenhofen, Germany) are overlayed with a maximum of 40 ml of blood/Hanks mixture were centrifuged for 30 min at room temperature (2000 rpm). A visible band containing PBMCs is transferred to a fresh tube and washed twice with Hanks-buffer. Finally cells are seeded in RPMI 1640 Medium (Life Technologies, Heidelberg, Germany) with Glutamax I (Gibco BRL, Eggenstein) and 10% FCS (Boehringer Mannheim, Penzberg, Germany). After isolated, PBMCs were cultured in RPMI 1640 medium supplemented with 10% fetal calf serum (FCS) at 37° C. 5% CO2 overnight. Monocytes were isolated from other cells by adherence method, non-adherent cells were removed by changing the medium. Cells are re-suspended at 10^6 cells/ml and incubated in 500 μl volumes in 24-well tissue culture plates (Falcon Becton Dickinson Labware) at 37° C., 5% CO2. After pre-incubation with test substances (0.5 μl/500 μl medium) for 30 min, cells were stimulated with lipopolysaccharide (LPS) (1 μg/ml). At indicated times cells were sedimented by centrifugation, the supernatants were harvested and kept frozen at −80° C. until protein determination; the cells were lysed by RLT lysis Buffer (Qiagen, Hilden, Germany) and frozen at −80° C. until analysis. […] Plates are read at 450 nm (reference 570 nm) in a microplate reader (Dynatech). The results are expressed as a percentage of the control level of cytokines production by cells stimulated in the absence of the compound.

[2] = tested on: pulmonary M1 and M3 muscarinic receptor subtypes; conditions: following inhalation of single doses; cited from earlier work
[3] = in vivo; cited from earlier work

Compound: C[N+]1(C)CC[C@@H](OC(=O)[C@](O)(c2ccccc2)C2CCCC2)C1.[Br-] [R,R-glycopyrrolate]
- influence on LPS-induced TNFα release ([1]; alone, up to 10 μmol/l, human monocytes): did not influence

Compound: C[N+]1(C)[C@@H]2C[C@@H](OC(=O)C(O)(c3cccs3)c3cccs3)C[C@H]1[C@@H]1O[C@@H]12 [Tiotropium]
- duration of bronchodilation [2]: 24 h

Compound: CCCC1O[C@@H]2C[C@H]3[C@@H]4CCC5=CC(=O)C=C[C@]5(C)[C@H]4[C@@H](O)C[C@]3(C)[C@]2(C(=O)CO)O1 (some centres unmarked) [budesonide]
- IC50 ([1]; budesonide alone, human monocytes): 550 ± 130 pM
- IC50 ([1]; simultaneous addition of 10 μmol/l R,R-glycopyrrolate, p=0.0251): 130 ± 30 pM

Compound: C[C@@H]1C[C@H]2[C@@H]3C[C@H](F)C4=CC(=O)C=C[C@]4(C)[C@@]3(F)[C@@H](O)C[C@]2(C)[C@@]1(O)C(=O)SCF [fluticasone]
- oral bioavailability [3]: < 1%

— patent US10537550B2, “Methods of treating underlying inflammation from COPD or asthma” (MEDA PHARMA GMBH & CO. KG, priority 2004, dated 2020)
